Results published in patent EP2812315B1, “PYRROLIC DERIVATIVES, PROCESSES FOR PREPARING THE SAME AND THEIR USES AS A DRUG” (Universite Joseph Fourier, priority 2012, dated 2013).
≈ marks a conversion by molar mass, not a printed value.

Experiments:
Assay type in all cases: cell-based
[1] = tested on: KB (human mouth carcinoma); assay: In vitro cytotoxicity; conditions: triplicate; for inhibition at 10 µM: 10^-5 M in DMSO, read-out: % of cellular growth inhibition; for inhibition at 1 µM: 10^-6 M in DMSO, read-out: % of cellular growth inhibition (converted)
Protocol: (§1) In vitro cytotoxicity was assayed on three cell lines - KB (human mouth carcinoma), MCR5 (human lung fibroblast) and HCT116 (human colon tumor). Results are presented in table III as % of cellular growth inhibition in presence of 10^-5 M and 10^-6 M of the tested bis-pyrrolic derivatives in DMSO (triplicate).

[2] = tested on: HCT116 (human colon tumor); assay: In vitro cytotoxicity; conditions: triplicate; for inhibition at 10 µM: HCT-116, 10^-5 M in DMSO, read-out: % of cellular growth inhibition; for inhibition at 1 µM: HCT-116, 10^-6 M in DMSO, read-out: % of cellular growth inhibition (converted)
Protocol: as §1

MRC5 = assay: In vitro cytotoxicity; conditions: MRC5 (human lung fibroblast), triplicate; for inhibition at 10 µM: 10^-5 M in DMSO, read-out: % of cellular growth inhibition; for inhibition at 1 µM: 10^-6 M in DMSO, read-out: % of cellular growth inhibition (converted)
Protocol: as §1

[3] = tested on: Staphylococcus aureus (MRSA 252); assay: Other MIC determination, microdilution method (CLSI M07-A9) with modifications; conditions: 10^6 CFU/ml, 18h at 37 °C
Protocol: (§2) The microdilution method recommended by the Clinical and Laboratory Standard Institute [M07-A9, Vol.32, N°2] was used with the following modifications.
(§3) Bacterial inocula were prepared in Mueller Hinton broth (MH2, BioMérieux, Marcy L'Etoile, France). They were dispensed in 96 well microtiter plates (10^6 CFU/ml of final inoculum, 192 µL per well).
(§4) To avoid cross-contaminations in microtiter plates, one row was left blank between each strain tested. Microplates were incubated for 18h at 37 °C in ambient air. Then MICs were read visually and, in case of visual reading difficulties, confirmed using a spectrophotometer at a wavelength of 630 nm (BioTek® EL808 Absorbance Microplate Reader). MICs corresponded to the minimum pyrrolic compound concentrations that allowed complete visual growth inhibition of bacteria. Drug-free cultures served as growth controls.
(§5) We used four Staphylococcus aureus strains. Two reference strains were provided by the French reference center for Staphylococcus spp. (Lyon, France), including one methicillin-susceptible (MSSA 476) and one methicillin-resistant (MRSA 252) S. aureus strains. The two remaining S. aureus strains were purchased from the CRBIP (Centre de Ressources Biologiques de l'Institut Pasteur): a vancomycin-intermediate strain (ATCC 106414) and a S. aureus strain (SA-1199B) resistant to fluoroquinolones due to overexpression of the NorA multidrug efflux pump. Coagulase-negative Staphylococcus strains included three reference strains purchased from CRBIP: a methicillin-susceptible S. epidermidis strain (ATCC 12228), a methicillin-resistant S. epidermidis strain (ATCC 49461), and a methicillin-susceptible S. sciuri strain (ATCC 29061). We also used 37 clinical strains belonging to the following coagulase-negative Staphylococcus species: S. arlettae (two strains), S. capitis (nine strains), S. epidermidis (one strain), S. haemolyticus (six strains), S. hominis (eight strains), S. lugdunensis (one strain), S. massiliensis (one strain), S. pettenkoferi (two strains), S. saprophyticus (two strains), S. simulans (one strain), and S. warneri (four strains) . Identification of the clinical strains was first obtained using VITEK® 2 System (Biomérieux) and confirmed by amplification and sequencing of the tuf gene (Reference: Bergeron, M., O. Dauwalder, M. Gouy, A.-M. Freydiere, M. Bes, H. Meugnier, Y. Benito, J. Etienne, G. Lina, F. Vandenesch, and S. Boisset. Species identification of staphylococci by amplification and sequencing of the tuf gene compared to the gap gene and by matrix-assisted laser desorption ionization time-of-flight mass spectrometry, Eur. J. Clin. Microbial. Infect. Dis. 2011, 30, 343-354).
(§6) The activity of pyrrolic compounds 3c, 3e-3j and 3n was first tested against 12 Staphylococcus sp. strains, including 7 reference strains and five clinical strains. The MICs of these compounds against Staphylococcus aureus ATCC 106414 (VISA) and Staphylococcus epidermidis ATCC 12228 are in accordance with those described in Tables I and II.

[4] = tested on: Staphylococcus sciuri (ATCC 29061); assay: as above; conditions: Mammaliicoccus sciuri, ATCC29061, 10^6 CFU/ml, 18h at 37 °C
Protocol: as §2, §3, §4, §5, §6

[5] = tested on: Staphylococcus capitis (CHUG-Scapi1); assay: as above; conditions: 10^6 CFU/ml, 18h at 37 °C
Protocol: as §2, §3, §4, §5, §6

[6] = tested on: Staphylococcus aureus (ATCC 106414, VISA); assay: as above; conditions: 10^6 CFU/ml, 18h at 37 °C
Protocol: as §2, §3, §4, §5, §6

[7] = tested on: Staphylococcus pettenkoferi (CHUG-Spet1); assay: as above; conditions: 10^6 CFU/ml, 18h at 37 °C
Protocol: as §2, §3, §4, §5, §6

[8] = tested on: Staphylococcus aureus (MSSA476); assay: as above; conditions: 10^6 CFU/ml, 18h at 37 °C
Protocol: as §2, §3, §4, §5, §6

[9] = tested on: Staphylococcus hominis(CHUG-Shom1); assay: as above; conditions: 10^6 CFU/ml, 18h at 37 °C
Protocol: as §2, §3, §4, §5, §6

[10] = tested on: Staphylococcus epidermidis (ATCC 49461); assay: as above; conditions: ATCC49461, 10^6 CFU/ml, 18h at 37 °C
Protocol: as §2, §3, §4, §5, §6

[11] = tested on: Staphylococcus haemolyticus (CHUG-Shae1); assay: as above; conditions: 10^6 CFU/ml, 18h at 37 °C
Protocol: as §2, §3, §4, §5, §6

[12] = tested on: Staphylococcus warneri (CHUG-Swar1); assay: as above; conditions: 10^6 CFU/ml, 18h at 37 °C
Protocol: as §2, §3, §4, §5, §6

[13] = tested on: Staphylococcus epidermidis (ATCC 12228); assay: as above; conditions: ATCC12228, 10^6 CFU/ml, 18h at 37 °C
Protocol: as §2, §3, §4, §5, §6

[14] = tested on: Staphylococcus aureus ATCC 25923; assay: MIC determination, microdilution method (CLSI M07-A8); conditions: ATCC25923; Staphylococcus aureus ATCC 25923; 5 x 10^5 CFU/mL; 18 hours incubation; read-out: MIC
Protocol: The microdilution method recommended by the Clinical and Laboratory Standard Institute [M07-A8, Vol.29, N°2] was used. The activity of pyrrolic compounds was tested against 29 bacterial strains belonging to 17 different species and 12 different genera (Staphylococcus, Streptococcus, Enterococcus, […], Bacillus, Haetttophilus, Escherichia, Klebsiella, Enterobacter, Serratia, Pseudomonas, and Acinetobacter). Bacterial inocula were prepared in Mueller Hinton broth (MH2, bioMérieux, Marcy L'Etoile, France), supplemented with 10% sheep blood for fastidious species (i.e., Streptococcus pneumoniae and Haemophilus influenzae). They were dispensed in 96 well microtiter plates (5 x 10^5 CFU/mL of final inoculum). Pyrrolic compounds were added to the wells as to obtain two-fold serial concentrations (0.25-64 mg/L). Plates were incubated at 37°C, in 5% CO2 enriched atmosphere for fastidious species only. MICs were read after 18 hours incubation of cultures, and corresponded to the minimum pyrrolic compound concentration that allowed complete visual growth inhibition of bacteria. Drug-free cultures served as growth controls. Cultures receiving gentamicine, ciprofloxacine or cefotaxime served as positive controls.

CC(=O)c1c(C)[nH]c(C(c2[nH]c(C)c(C(C)=O)c2C)c2csc3ccccc23)c1C [3i]
inhibition at 10 µM [1]: 95 ± 1%
inhibition at 1 µM [1]: 0%
inhibition at 10 µM [2]: 50 ± 1%
inhibition at 1 µM [2]: 10%
inhibition at 10 µM (MRC5): 84 ± 1%
inhibition at 1 µM (MRC5): 0%
MIC [3]: 1 µg/mL (≈ 2.39 µM)
MIC [4]: > 32 µg/mL
MIC [5]: 1 µg/mL (≈ 2.39 µM)
MIC [6]: 0.5 µg/mL (≈ 1.19 µM)
MIC [7]: > 32 µg/mL
MIC [8]: 0.5 µg/mL (≈ 1.19 µM)
MIC [9]: > 32 µg/mL
MIC [10]: > 32 µg/mL
MIC [11]: 4 µg/mL (≈ 9.56 µM)
MIC [12]: 1 µg/mL (≈ 2.39 µM)
MIC [13]: > 32 µg/mL
MIC [14]: 1 µg/mL (≈ 2.39 µM)

CC(=O)c1c(C)[nH]c(C(c2[nH]c(C)c(C(C)=O)c2C)c2csc3ccc(Br)cc23)c1C [3n]
inhibition at 10 µM [1]: 100 ± 1%
inhibition at 1 µM [1]: 81%
inhibition at 10 µM [2]: 83 ± 1%
inhibition at 1 µM [2]: 47%
inhibition at 10 µM (MRC5): 96 ± 1%
inhibition at 1 µM (MRC5): 67%
MIC [3]: 0.125 µg/mL (≈ 0.251 µM)
MIC [4]: > 32 µg/mL
MIC [5]: 0.125 µg/mL (≈ 0.251 µM)
MIC [6]: 0.125 µg/mL (≈ 0.251 µM)
MIC [7]: > 32 µg/mL
MIC [8]: 0.125 µg/mL (≈ 0.251 µM)
MIC [9]: > 32 µg/mL
MIC [10]: > 32 µg/mL
MIC [11]: 1 µg/mL (≈ 2.01 µM)
MIC [12]: 0.25 µg/mL (≈ 0.503 µM)
MIC [13]: > 32 µg/mL

CC(=O)c1c(C)[nH]c(C(c2[nH]c(C)c(C(C)=O)c2C)c2cccc3ccccc23)c1C [3h]
inhibition at 10 µM [1]: 54 ± 4%
inhibition at 1 µM [1]: 0%
inhibition at 10 µM [2]: 53 ± 2%
inhibition at 1 µM [2]: 5%
inhibition at 10 µM (MRC5): 25 ± 4%
inhibition at 1 µM (MRC5): 0%
MIC [3]: 2 µg/mL (≈ 4.85 µM)
MIC [4]: > 32 µg/mL
MIC [5]: 4 µg/mL (≈ 9.7 µM)
MIC [6]: 1 µg/mL (≈ 2.42 µM)
MIC [7]: > 32 µg/mL
MIC [8]: 1 µg/mL (≈ 2.42 µM)
MIC [9]: > 32 µg/mL
MIC [10]: > 32 µg/mL
MIC [11]: 4 µg/mL (≈ 9.7 µM)
MIC [12]: 2 µg/mL (≈ 4.85 µM)
MIC [13]: > 32 µg/mL
MIC [14]: 1 µg/mL (≈ 2.42 µM)

CC(=O)c1c(C)[nH]c(C(c2ccc(F)cc2)c2[nH]c(C)c(C(C)=O)c2C)c1C [3g]
inhibition at 10 µM [1]: 11 ± 3%
inhibition at 10 µM [2]: 3 ± 6%
inhibition at 10 µM (MRC5): 2 ± 1%
MIC [3]: 8 µg/mL (≈ 21 µM)
MIC [4]: > 32 µg/mL
MIC [5]: 8 µg/mL (≈ 21 µM)
MIC [6]: 4 µg/mL (≈ 10.5 µM)
MIC [7]: > 32 µg/mL
MIC [8]: 4 µg/mL (≈ 10.5 µM)
MIC [9]: > 32 µg/mL
MIC [10]: > 32 µg/mL
MIC [11]: 16 µg/mL (≈ 42.1 µM)
MIC [12]: 8 µg/mL (≈ 21 µM)
MIC [13]: > 32 µg/mL
MIC [14]: 2 µg/mL (≈ 5.26 µM)

COC(=O)c1cccc(C(c2[nH]c(C)c(C(C)=O)c2C)c2[nH]c(C)c(C(C)=O)c2C)c1 [3j, Methyl-3-[bis(4-acetyl-3,5-dimethyl-1H-pyrrol-2-yl)methyl]benzoate]
inhibition at 10 µM [1]: 11 ± 3%
inhibition at 10 µM [2]: 1 ± 3%
inhibition at 10 µM (MRC5): 5 ± 1%
MIC [3]: 8 µg/mL (≈ 19 µM)
MIC [4]: > 32 µg/mL
MIC [5]: 16 µg/mL (≈ 38 µM)
MIC [6]: 4 µg/mL (≈ 9.51 µM)
MIC [7]: > 32 µg/mL
MIC [8]: 4 µg/mL (≈ 9.51 µM)
MIC [9]: > 32 µg/mL
MIC [10]: > 32 µg/mL
MIC [11]: 16 µg/mL (≈ 38 µM)
MIC [12]: 16 µg/mL (≈ 38 µM)
MIC [13]: > 32 µg/mL
MIC [14]: 4 µg/mL (≈ 9.51 µM)

CC(=O)c1c(C)[nH]c(C(c2cc3ccccc3o2)c2[nH]c(C)c(C(C)=O)c2C)c1C [3e]
inhibition at 10 µM [1]: 2 ± 3%
inhibition at 10 µM [2]: 24 ± 6%
inhibition at 10 µM (MRC5): 7 ± 1%
MIC [3]: 8 µg/mL (≈ 19.9 µM)
MIC [4]: > 32 µg/mL
MIC [5]: 8 µg/mL (≈ 19.9 µM)
MIC [6]: 4 µg/mL (≈ 9.94 µM)
MIC [7]: > 32 µg/mL
MIC [8]: 4 µg/mL (≈ 9.94 µM)
MIC [9]: > 32 µg/mL
MIC [10]: > 32 µg/mL
MIC [11]: > 32 µg/mL
MIC [12]: 8 µg/mL (≈ 19.9 µM)
MIC [13]: > 32 µg/mL
MIC [14]: 4 µg/mL (≈ 9.94 µM)

CC(=O)c1c(C)[nH]c(C(c2cc3ccccc3s2)c2[nH]c(C)c(C(C)=O)c2C)c1C [3f]
inhibition at 10 µM [1]: 23 ± 3%
inhibition at 10 µM [2]: 19 ± 4%
inhibition at 10 µM (MRC5): 0%
MIC [3]: 4 µg/mL (≈ 9.56 µM)
MIC [4]: > 32 µg/mL
MIC [5]: > 32 µg/mL
MIC [6]: 2 µg/mL (≈ 4.78 µM)
MIC [7]: > 32 µg/mL
MIC [8]: 4 µg/mL (≈ 9.56 µM)
MIC [9]: > 32 µg/mL
MIC [10]: > 32 µg/mL
MIC [11]: > 32 µg/mL
MIC [12]: 4 µg/mL (≈ 9.56 µM)
MIC [13]: > 32 µg/mL
MIC [14]: 2 µg/mL (≈ 4.78 µM)
